In PMC6274167, “ent-Pimarane and ent-Kaurane Diterpenes from Aldama discolor (Asteraceae) and Their Antiprotozoal Activity” (Molecules, 2016):
“Also recorded” adds a separate entry of the source. Like-named read-outs stand apart in the source and are kept apart here.

Key:
[1] = Cytotoxicity against mammalian cells; format: cell-based, rat
Experimental: (§1) In vitro tests for the activity against Trypanosoma brucei rhodesiense (bloodstream trypomastigotes, STIB 900 strain), T. cruzi (amastigotes, Tulahuen C4 strain), Leishmania donovani (amastigotes, MHOM-ET-67/L82 strain), Plasmodium falciparum (intraerythrocytic forms, NF54 IEF strain), as well as for cytotoxicity against mammalian cells (L6-cell-line from rat-skeletal myoblasts) were performed according to established protocols as reported previously, e.g, in [33].

[2] = test system: T. b. rhodesiense; parameters: method as in PMID 24165182; settings: in words; cited from earlier work
[3] = test system: trypomastigote forms of T. cruzi (Y strain); parameters: method as in PMID 18688888; settings: in vitro, read-out: IC50 against trypomastigote forms of T. cruzi; cited from earlier work
[4] = test system: Trypanosoma brucei rhodesiense (bloodstream trypomastigotes, STIB 900 strain); experiment: In vitro activity against Trypanosoma brucei rhodesiense; format: cell-based; settings: for IC50: Trypanosoma brucei, read-out: IC50 T. b. rhodesiense; for SI T. b. rhodesiense: selectivity index determined with L6 cells
Experimental: (§2) As part of an extensive screening of Asteraceae from the Brazilian “Cerrado”, extracts obtained from the leaves of Aldama discolor with solvents of different polarity (n-hexane (Hex), dichloromethane (DCM), ethyl acetate (EtOAc) and methanol (MeOH)) were tested for in vitro activity against Trypanosoma brucei rhodesiense (bloodstream trypomastigotes), T. cruzi (intracellular amastigotes), Leishmania donovani (axenic amastigotes) and Plasmodium falciparum (intraerythrocytic forms). Each extract was tested at two concentrations, 2 and 10 μ g/mL, for growth inhibitory activity (% GI) against the various parasites.
as §1

[5] = test system: T. cruzi (amastigotes, Tulahuen C4 strain); experiment: In vitro activity against T. cruzi; format: cell-based, Trypanosoma cruzi; settings: for IC50: Trypanosoma cruzi, Tulahuen C4 strain, amastigotes, geometric mean of 2 experiments ±SE (values marked a: only one experiment); for SI T. cruzi: selectivity index determined with L6 cells
Experimental: as §2, §1

[6] = test system: Leishmania donovani (amastigotes, MHOM-ET-67/L82 strain); experiment: In vitro activity against Leishmania donovani; format: cell-based; settings: for IC50: Leishmania donovani, MHOM-ET-67/L82 strain, amastigotes, geometric mean of 2 experiments ±SE (values marked a: only one experiment), read-out: IC50 L. donovani; for SI L. donovani: selectivity index determined with L6 cells
Experimental: as §2, §1

[7] = test system: Plasmodium falciparum (intraerythrocytic forms, NF54 IEF strain); experiment: In vitro activity against Plasmodium falciparum; format: cell-based; settings: for SI P. falciparum: selectivity index determined with L6 cells
Experimental: as §2, §1

[8] = test system: P. falciparum K-1 strain; parameters: method as in PMID 16309313; settings: read-out: IC50 antiplasmodial activity; cited from earlier work
[9] = test system: P. falciparum strain 3D7; parameters: method as in PMID 15104493; settings: read-out: IC50 in vitro antiplasmodial effect; cited from earlier work
[10] = test system: T.b. brucei; parameters: method as in PMID 21843897; settings: cited from earlier work
[11] = test system: erythrocytes; parameters: method as in PMID 15104493; settings: cited from earlier work
[12] = L6-cell-line from rat-skeletal myoblasts, geometric mean of 2 experiments ±SE, read-out: IC50 L6 Cells (cytotoxicity)
[13] = STIB 900 strain, trypomastigotes, geometric mean of 2 experiments ±SE (values marked a: only one experiment)
[14] = NF54 strain, intra-erythrocytic stages, geometric mean of 2 experiments ±SE (values marked a: only one experiment), read-out: IC50 P. falciparum
[15] = Plasmodium falciparum, NF54, NF54 strain, intra-erythrocytic stages, geometric mean of 2 experiments ±SE (values marked a: only one experiment), read-out: IC50 P. falciparum

Q: With `COc1cc([C@@H]2c3cc4c(cc3[C@H](O)[C@H]3COC(=O)[C@H]23)OCO4)cc(OC)c1OC` [podophyllotoxin, reference compound] as the compound, how does the IC50 [1, 12] read?
A: 0.008 µM

Q: For `C=C1C(=O)O[C@@H]2/C=C(/CO)C3=CC(=O)[C@@](C)(C[C@@H](OC(=O)/C(C)=C/C)[C@@H]12)O3` [Compound 5, budlein A], which “activity against T. b. rhodesiense in vitro” value [2] is on record?
A: strong anti-T. b. rhodesiense activity; also recorded: exceptionally strong activity

Q: With 3β-acetoxy-ent-8(14),15-pimaradiene as the compound, how does the IC50 [3] read?
A: 149 µM

Q: For `C=CC1(C)CCC2=C(C1)C(=O)CC1C(C)(CO)CCCC21C` (single isomer, unassigned; ent-7) [Compound 2, ent-7-oxo-pimara-8,15-diene-18-ol], which IC50 [4, 13] is on record?
A: 24.3 µM

Q: What about the “SI T. b. rhodesiense” value [4] of the same compound?
A: 2

Q: What about the IC50 [5] of the same compound?
A: 15.4 µM

Q: What about the “SI T. cruzi” value [5] of the same compound?
A: 3

Q: And the IC50 [6]?
A: 18.2 µM

Q: And the “SI L. donovani” value [6]?
A: 3

Q: And the IC50 [7, 14]?
A: 3.8 µM

Q: And the IC50 [7, 15]?
A: 3.85 µM

Q: What about the “SI P. falciparum” value [7] of the same compound?
A: 13

Q: And the IC50 ([1]; rat)?
A: 48.3 ± 5.9 µM

Q: With `C=CC1(C)C=C2CCC3C(C)(C)CC(O)C(O)C3(C)C2C(O)C1` (centres unmarked) [1,2,11-trihydroxypimara-8(14),15-diene] as the compound, how does the IC50 [8] read?
A: 27.4 µM

Q: Which IC50 [8] does the source give for `C=CC1(C)C=C2CCC3C(C)(C)CCC(O)C3(C)C2C(O)C1` (centres unmarked) [1,11-dihydroxypimara-8(14),15-diene] here?
A: 9.8 µM

Q: With `Nc1nc(N)nc(Nc2ccc([As]3SCC(CO)S3)cc2)n1` (centres unmarked) [melarsoprol, reference compound] as the compound, how does the IC50 [4] read?
A: 0.025 ± 0.0005 µM

Q: With `C=C[C@@]1(C)CCC2=C(CC[C@H]3C(C)(C)[C@@H](O)CC[C@]23C)C1` [8(9),15-isopimaradien-3β-ol] as the compound, how does the IC50 [9] read?
A: 24.5 µM

Q: With `C=CC1(C)CCC2=C(C1)C(=O)CC1C2(C)CCC(O)C1(C)C` (single isomer, unassigned; ent-7) [Compound 3, ent-7-oxo-pimara-8,15-diene-3β-ol] as the compound, how does the IC50 [5] read?
A: 19.4 µM

Q: What about the “SI T. cruzi” value [5] of the same compound?
A: 4

Q: And the IC50 [6]?
A: 13.8 µM

Q: What about the “SI L. donovani” value [6] of the same compound?
A: 5

Q: What about the IC50 [7, 15] of the same compound?
A: 16.5 ± 4.9 µM

Q: What about the “SI P. falciparum” value [7] of the same compound?
A: 4

Q: What about the IC50 ([1]; rat) of the same compound?
A: 69.3 ± 10.9 µM

Q: For `C=CC1(C)C=C2C(O)CC3C4(C)COC(C4)CC3(C)C2CC1` (stereo not drawn) [Compound 4, ent-2S,4S-2,19-epoxy-pimara-8(14),15-diene-7β-ol], which IC50 [4, 13] is on record?
A: 47.3 ± 4.1 µM

Q: And the “SI T. b. rhodesiense” value [4]?
A: 2

Q: And the IC50 [5]?
A: 58.9 µM

Q: What about the “SI T. cruzi” value [5] of the same compound?
A: 2

Q: And the IC50 [6]?
A: 21.9 µM

Q: And the “SI L. donovani” value [6]?
A: 5

Q: What about the IC50 [7, 15] of the same compound?
A: 16.1 ± 6.1 µM

Q: What about the “SI P. falciparum” value [7] of the same compound?
A: 6

Q: And the IC50 ([1]; rat)?
A: 101 ± 45.7 µM

Q: With `O=C(Cn1ccnc1[N+](=O)[O-])NCc1ccccc1` [benznidazole, reference compound] as the compound, how does the IC50 [5] read?
A: 0.653 ± 0.135 µM

Q: For `C=C1C(=O)C23CCC4C(C)(C)CCCC4(C)C2C(O)CC1C3` (single isomer, unassigned; ent-16) [11α-Hydroxy-ent-16-kauren-15-one], which SI ([10]; cytotoxicity determined with a human embryonic cell line (MRC-5)) is on record?
A: 3.2

Q: What about the IC50 ([10]; read-out: IC50 against T.b. brucei) of the same compound?
A: 0.761 µM

Q: Which results are given for `C=C1C[C@@]23CC[C@@H]4[C@](C)(CO)[C@H](O)CC[C@@]4(C)[C@@H]2CC[C@@H]1C3` (single isomer, unassigned; ent-3) [Compound 1, ent-3-α-hydroxy-kaur-16-en-18-ol]?
A: IC50 [4, 13]: 20.1 ± 0.5 µM; SI T. b. rhodesiense [4]: 2; IC50 [5]: 55.6 µM; SI T. cruzi [5]: 1; IC50 [6]: 2.5 ± 1.5 µM; SI L. donovani [6]: 16; IC50 [7, 14]: 3.5 ± 0.2 µM; IC50 [7, 15]: 3.54 µM; SI P. falciparum [7]: 11; IC50 [1, 12]: 40.2 ± 5.5 µM

Q: For `CCCCCCCCCCCCCCCCOP(=O)([O-])OCC[N+](C)(C)C` [miltefosine, reference compound], which IC50 [6] is on record?
A: 0.049 ± 0.001 µM

Q: Which IC50 ([7]; Plasmodium falciparum, NF54, read-out: IC50 P. falciparum) does the source give for `CCN(CC)CCCC(C)Nc1ccnc2cc(Cl)ccc12` (centres unmarked) [chloroquine, reference compound] here?
A: 0.003 ± 0.001 µM

Q: With `C=C[C@@]1(C)CC[C@@H]2[C@](O)(CC[C@@H]3[C@](C)(CO)CCC[C@]32C)C1` (single isomer, unassigned; ent-15) [ent-15-pimarene-8β,19-diol] as the compound, how does the IC50 [3] read?
A: 116 µM

Q: Which effect on erythrocytes [11] does the source give for `C=C[C@]1(C)C=C2CC[C@H]3[C@](C)(CO)[C@@H](O)CC[C@]3(C)[C@H]2CC1` [8(14),15-isopimaradien-3β,19-diol] here?
A: induced echinocytosis at low concentrations and caused pronounced cell lysis
